The target of assay [1] is T1, rat metabotropic glutamate receptor (mGlu2) (Rattus norvegicus, UniProt P31421).
T1 construct: expressed in transfected cells
In words: [35S]GTPγS binding test (1), crude membrane fraction of CHO cells stably expressing rat mGlu2. It is filed as biochemical. The following applies: rat mGlu2 CHO membranes. As to the method:
[^35S]GTPγS Binding Test (1)
(Preparation of Crude Membrane Fraction of CHO Cells Stably Expressing the Rat Metabotropic Glutamate Receptor (mGlu2))
(§1) CHO cells stably expressing the rat mGlu2 were cultured in a 10% dialyzed fetal bovine serum-containing Dulbecco's Modified Eagle's Medium [1% proline, 50 units/mL penicillin, 50 μg/mL streptomycin, and 2 mM L-glutamine (to be added when used)] at 37° C. in 5% CO2. Confluent cells were washed with PBS(−) twice, and were then harvested with a cell scraper. Then, the cells were centrifuged at 4° C. at 1000 rpm for 5 minutes to collect. The obtained precipitate was suspended in a 20 mM HEPES buffer (pH 7.4), and then homogenized with a Teflon (registered trademark) homogenizer. The resultant was centrifuged at 4° C. at 48,000×g for 20 minutes to obtain a precipitate again. The obtained precipitate was washed twice by centrifugation, and was then homogenized with the above-mentioned buffer, so as to obtain a crude membrane fraction. The obtained crude membrane fraction was preserved at −80° C.
The frozen membrane fraction as prepared above was thawed when used, and it was then diluted with a binding test buffer (final concentration: 20 mM HEPES, 100 mM NaCl, 10 mM MgCl2, 8.4 μM GDP, 10 μg/mL saponin, and 0.1% BSA). The compound of the Example was added to a membrane fraction (10 μg protein/assay), and the obtained mixture was then incubated at 30° C. for 20 minutes. Thereafter, glutamic acid (final concentration: 20 μM; but it was 30 μM only in the compounds 1 and 40 of the Examples) and [^35S]GTPγS (final concentration: 0.15 nM) were added to the reaction mixture, and then incubated at 30° C. for 1 hour. After completion of the incubation, the reaction mixture was subjected to filtration over a Whatman GF/C filter that had previously been immersed in a 20 mM HEPES buffer (pH 7.4), and the filter was then washed three times with 300 μL of ice-cold 20 mM HEPES buffer (pH 7.4). A scintillation cocktail was added to the resulting filter, and membrane-bound radioactivity was then measured with a liquid scintillation counter.
The amount of [^35S]GTPγS bound in the case of carrying out the above described reaction in the absence of glutamic acid was defined as non-specific binding. The difference between such non-specific bound and the amount of [^35S]GTPγS bound in the presence of glutamic acid was defined as specific binding. Using non-linear analysis, a concentration-inhibition curve was produced. The concentration of the compound of each Example that caused 50% inhibition (IC50 value) of specific binding was determined from each concentration-inhibition curve.
(GTPγS is a poorly hydrolysed GTP analogue; its binding reports G protein activation.)

The target of assay [2] is T2, human metabotropic glutamate receptor (mGlu2) (Homo sapiens, UniProt Q14416).
T2 construct: expressed in transfected cells
T2 sequence (Q14416 19-872): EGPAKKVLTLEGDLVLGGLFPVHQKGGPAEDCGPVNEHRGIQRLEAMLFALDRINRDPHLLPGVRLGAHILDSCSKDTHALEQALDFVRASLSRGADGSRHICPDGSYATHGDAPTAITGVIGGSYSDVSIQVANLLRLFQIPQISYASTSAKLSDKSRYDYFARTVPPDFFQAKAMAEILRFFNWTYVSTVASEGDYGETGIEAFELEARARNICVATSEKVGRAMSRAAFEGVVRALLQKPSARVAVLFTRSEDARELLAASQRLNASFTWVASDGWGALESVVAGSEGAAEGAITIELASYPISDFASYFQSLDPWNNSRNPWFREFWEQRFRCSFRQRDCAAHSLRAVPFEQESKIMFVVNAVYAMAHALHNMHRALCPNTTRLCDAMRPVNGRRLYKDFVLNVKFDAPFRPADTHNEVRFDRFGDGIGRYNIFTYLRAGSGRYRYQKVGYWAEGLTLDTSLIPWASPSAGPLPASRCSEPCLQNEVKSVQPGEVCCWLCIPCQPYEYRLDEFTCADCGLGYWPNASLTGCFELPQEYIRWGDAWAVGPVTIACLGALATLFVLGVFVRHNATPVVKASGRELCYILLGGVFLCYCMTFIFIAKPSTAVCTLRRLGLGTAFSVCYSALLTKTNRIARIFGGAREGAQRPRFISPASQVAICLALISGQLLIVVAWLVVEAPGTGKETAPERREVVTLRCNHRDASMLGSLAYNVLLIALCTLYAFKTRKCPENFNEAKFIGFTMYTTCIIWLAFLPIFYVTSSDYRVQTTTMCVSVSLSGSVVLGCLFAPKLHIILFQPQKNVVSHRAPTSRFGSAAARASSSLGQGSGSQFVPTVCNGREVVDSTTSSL
Nature of the assay: [35S]GTPγS binding test (2), crude membrane fraction of CHO cells stably expressing human mGlu2. It is filed as biochemical. The following applies: inhibition of glutamic acid (20 μM)-stimulated specific [35S]GTPγS binding, human mGlu2 CHO membranes. As to the method:
[^35S]GTPγS Binding Test (2)
(Preparation of Crude Membrane Fraction of CHO Cells Stably Expressing the Human Metabotropic Glutamate Receptor (mGlu2))
as §1, with “human” for “rat”, “mGlu2 receptor” for “mGlu2”, “streptomycin, 400 μg/mL hygromycin B,” for “streptomycin,”, “The obtained crude membrane fraction was preserved at −80° C.” left out
The frozen membrane fraction as prepared above was thawed when used, and it was then diluted with a binding test buffer (final concentration: 20 mM HEPES, 100 mM NaCl, 10 mM MgCl2, 8.4 μM GDP, 10 μg/mL saponin, and 0.1% BSA). […] A scintillation cocktail was added to the resulting filter, and membrane-bound radioactivity was then measured with a liquid scintillation counter. […]

The mark [3] stands for this setting: inhibition of glutamic acid (20 μM)-stimulated specific [35S]GTPγS binding.
The mark [4] stands for this setting: inhibition of glutamic acid (30 μM, only compounds 1 and 40)-stimulated specific [35S]GTPγS binding.

T1 sequence (P31421 19-872): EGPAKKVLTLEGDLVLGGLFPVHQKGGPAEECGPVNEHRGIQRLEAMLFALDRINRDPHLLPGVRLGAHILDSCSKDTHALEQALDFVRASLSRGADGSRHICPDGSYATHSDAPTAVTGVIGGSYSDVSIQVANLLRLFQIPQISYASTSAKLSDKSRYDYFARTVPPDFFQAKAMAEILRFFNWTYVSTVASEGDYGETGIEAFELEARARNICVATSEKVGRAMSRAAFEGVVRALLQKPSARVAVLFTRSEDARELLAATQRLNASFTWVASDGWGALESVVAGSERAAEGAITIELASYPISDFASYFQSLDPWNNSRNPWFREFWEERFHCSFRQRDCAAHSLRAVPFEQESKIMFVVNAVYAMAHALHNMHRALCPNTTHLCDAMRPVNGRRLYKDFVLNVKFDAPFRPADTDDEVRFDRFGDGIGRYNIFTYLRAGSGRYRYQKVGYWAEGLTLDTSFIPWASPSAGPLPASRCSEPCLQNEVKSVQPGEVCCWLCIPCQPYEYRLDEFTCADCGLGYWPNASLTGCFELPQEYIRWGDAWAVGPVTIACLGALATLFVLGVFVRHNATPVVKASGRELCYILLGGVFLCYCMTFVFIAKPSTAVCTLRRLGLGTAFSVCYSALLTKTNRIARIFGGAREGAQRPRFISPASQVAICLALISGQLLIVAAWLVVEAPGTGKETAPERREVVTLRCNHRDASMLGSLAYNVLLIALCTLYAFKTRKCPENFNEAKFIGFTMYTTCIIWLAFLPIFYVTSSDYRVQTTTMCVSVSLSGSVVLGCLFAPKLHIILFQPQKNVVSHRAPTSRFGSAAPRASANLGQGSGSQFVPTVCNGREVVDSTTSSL

For the compound `Cc1nn(C)c(COc2ccc(C(F)(F)F)cc2)c1C#Cc1cccc(S(N)(=O)=O)c1` [Example 81, 3-[(1,3-dimethyl-5-{[4-(trifluoromethyl)phenoxy]methyl}-1H-pyrazol-4-yl)ethynyl]benzenesulfonamide], the IC50 (in general, the midpoint of a concentration-inhibition curve) in assay [1] (setting [3]) worked out at 0.0146 µM. That is a double-digit nanomolar value.

`Cn1ncc(C#Cc2ccc(S(N)(=O)=O)cc2)c1COc1ccc(F)cn1` [Example 108, 4-[(5-{[(5-fluoropyridin-2-yl)oxy]methyl}-1-methyl-1H-pyrazol-4-yl)ethynyl]benzenesulfonamide] showed a half-maximal inhibitory concentration (IC50) in assay [2] of 0.00922 µM.

`Cn1ncc(C#Cc2ccc(S(N)(=O)=O)cc2)c1COc1ccc(C(F)(F)F)cn1` [Example 109, 4-{[1-methyl-5-({[5-(trifluoromethyl)pyridin-2-yl]oxy}methyl)-1H-pyrazol-4-yl]ethynyl}benzenesulfonamide] showed a concentration for half-maximal inhibition (IC50) in assay [2] of 0.00122 µM.

In assay [1] (setting [3]), `Cn1ncc(C#Cc2cccc(S(N)(=O)=O)c2)c1CNc1ccc(C(F)(F)F)cc1` [Example 98] returned an IC50 of 0.0428 µM.

`Cn1ncc(C#Cc2ccc(S(N)(=O)=O)cc2)c1N1Cc2ccc(Cl)cc2C1` [Example 58, 4-{[5-(5-chloro-1,3-dihydro-2H-isoindol-2-yl)-1-methyl-1H-pyrazol-4-yl]ethynyl}benzenesulfonamide] displayed an IC50 in assay [1] (setting [3]) of 0.0138 µM.

As to `Cn1ncc(C#Cc2cccc(S(N)(=O)=O)c2)c1N1Cc2cc3ccccc3cc2C1` [Example 40, 3-{[5-(1,3-dihydro-2H-benzo[f]isoindol-2-yl)-1-methyl-1H-pyrazol-4-yl]ethynyl}benzenesulfonamide], the IC50 in assay [1] (setting [4]) is 0.0242 µM.

`Cn1ncc(C#Cc2cccc(S(N)(=O)=O)c2)c1CCOc1ccc(C(F)(F)F)cc1` [Example 106, 3-[(1-methyl-5-{2-[4-(trifluoromethyl)phenoxy]ethyl}-1H-pyrazol-4-yl)ethynyl]benzenesulfonamide] came in with an IC50 in assay [1] (setting [3]) of 0.00788 µM.

With `Cn1ncc(C#Cc2cccc(S(N)(=O)=O)c2)c1-c1cc(-c2ccc(C(F)(F)F)cc2)no1` [Example 87, 3-[(1-methyl-5-{3-[4-(trifluoromethyl)phenyl]-1,2-oxazol-5-yl}-1H-pyrazol-4-yl)ethynyl]benzenesulfonamide], the IC50 in assay [1] (setting [3]) is 0.00343 µM.

On to `Cn1ncc(C#Cc2ccc(S(N)(=O)=O)cc2)c1-c1ccc(C(F)(F)F)cn1` [Example 50, 4-({1-methyl-5-[5-(trifluoromethyl)pyridin-2-yl]-1H-pyrazol-4-yl}ethynyl)benzenesulfonamide], for which the IC50 in assay [1] (setting [3]) was 0.0764 µM. This IC50 lies about 22-fold higher than the previous one.

Compound `Cn1ncc(C#Cc2cccc(S(N)(=O)=O)c2)c1OCc1ccc(C(F)(F)F)cc1` [Example 89, 3-[(1-methyl-5-{[4-(trifluoromethyl)benzyl]oxy}-1H-pyrazol-4-yl)ethynyl]benzenesulfonamide] came in with an IC50 in assay [1] (setting [3]) of 0.0551 µM.

With `Cn1ncc(C#Cc2cccc(S(N)(=O)=O)c2)c1COc1ccc(C#N)cc1` [Example 100, 3-({5-[(4-cyanophenoxy)methyl]-1-methyl-1H-pyrazol-4-yl}ethynyl)benzenesulfonamide], the IC50 in assay [1] (setting [3]) turned out to be 0.0618 µM.

`Cn1ncc(C#Cc2ccc(S(N)(=O)=O)cc2)c1-c1nc(-c2ccc(C(F)(F)F)cc2)no1` [Example 73, 4-[(1-methyl-5-{3-[4-(trifluoromethyl)phenyl]-1,2,4-oxadiazol-5-yl}-1H-pyrazol-4-yl)ethynyl]benzenesulfonamide] displayed an IC50 in assay [1] (setting [3]) of 0.0021 µM.

The compound `Cn1ncc(C#Cc2cccc(S(N)(=O)=O)c2)c1CCc1cccc(C(F)(F)F)c1` [Example 94, 3-[(1-methyl-5-{2-[3-(trifluoromethyl)phenyl]ethyl}-1H-pyrazol-4-yl)ethynyl]benzenesulfonamide] had a half-maximal inhibitory concentration (IC50) in assay [1] (setting [3]) of 0.0182 µM.

In assay [1] (setting [3]), `Cn1ncc(C#Cc2cccc(S(N)(=O)=O)c2)c1COc1ccc(C(F)(F)F)cc1` [Example 84, 3-[(1-methyl-5-{[4-(trifluoromethyl)phenoxy]methyl}-1H-pyrazol-4-yl)ethynyl]benzenesulfonamide] gave an IC50 of 0.00272 µM.

`Cn1ncc(C#Cc2ccc(S(N)(=O)=O)cc2)c1-c1cnn(-c2ccc(C(F)(F)F)cc2)c1` [Example 64, 4-({2-methyl-1′-[4-(trifluoromethyl)phenyl]-1′H,2H-3,4′-bipyrazol-4-yl}ethynyl)benzenesulfonamide] had a concentration for half-maximal inhibition (IC50) in assay [1] (setting [3]) of 0.00977 µM.

`CN(C)CCNS(=O)(=O)c1cccc(C#Cc2cnn(C)c2-c2ccc(C(F)(F)F)cc2)c1` [Example 1, N-[2-(dimethylamino)ethyl]-3-({1-methyl-5-[4-(trifluoromethyl)phenyl]-1H-pyrazol-4-yl}ethynyl)benzenesulfonamide] yielded a half-maximal inhibitory concentration (IC50) in assay [1] (setting [4]) of 0.158 µM. That is a sub-micromolar value.

For the compound `Cn1ncc(C#Cc2ccc(S(N)(=O)=O)cc2F)c1CCc1ccc(C(F)(F)F)cc1` [Example 83, 3-fluoro-4-[(1-methyl-5-{2-[4-(trifluoromethyl)phenyl]ethyl}-1H-pyrazol-4-yl)ethynyl]benzenesulfonamide], in assay [1] (setting [3]), the half-inhibitory concentration (IC50) stood at 0.022 µM.

The values above are taken from patent US8642626B2, “Ethinyl-pyrazole derivative” (Taisho Pharmaceutical Co., Ltd., priority 2010, dated 2014).
